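Assay format: 96-well plates, 48-hour exposure. TGI: concentration producing complete growth inhibition.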
Experiments:
Experiment in all cases: inhibition of tumour cell growth, NCI panel, 48 h
SK-MEL-2 melanoma = test system: SK-MEL-2 melanoma
HCT-116 colon = test system: HCT-116 colon
SW-620 colon = test system: SW-620 colon
NCI-H460 lung = test system: NCI-H460 lung
SF-539 CNS = test system: SF-539 CNS
HCT-15 colon = test system: HCT-15 colon
U251 CNS = test system: U251 CNS
HCC-2998 colon = test system: HCC-2998 colon
HOP-62 NSCLC = test system: HOP-62 NSCLC
TK-10 renal = test system: TK-10 renal
EKVX NSCLC = test system: EKVX NSCLC
HOP-18 NSCLC = test system: HOP-18 NSCLC
OVCAR-5 ovarian = test system: OVCAR-5 ovarian
A498 renal = test system: A498 renal
DMS 273 small cell lung = test system: DMS 273 small cell lung
M19-MEL melanoma = test system: M19-MEL melanoma
SN12C renal = test system: SN12C renal
HL-60(TB) leukemia = test system: HL-60(TB) leukemia
DLD-1 colon = test system: DLD-1 colon
DMS 114 small cell lung = test system: DMS 114 small cell lung
IGROV1 ovarian = test system: IGROV1 ovarian
SK-OV-3 ovarian = test system: SK-OV-3 ovarian
MOLT-4 leukemia = test system: MOLT-4 leukemia
SNB-75 CNS = test system: SNB-75 CNS
SK-MEL-28 melanoma = test system: SK-MEL-28 melanoma
A549 NSCLC = test system: A549 NSCLC
SK-MEL-5 melanoma = test system: SK-MEL-5 melanoma
UACC-62 melanoma = test system: UACC-62 melanoma
RXF 393 renal = test system: RXF 393 renal
SF-295 CNS = test system: SF-295 CNS
K-562 leukemia = test system: K-562 leukemia
CCRF-CEM leukemia = test system: CCRF-CEM leukemia
NCI-H226 lung = test system: NCI-H226 lung
786-0 renal = test system: 786-0 renal
OVCAR-4 ovarian = test system: OVCAR-4 ovarian
SF-268 CNS = test system: SF-268 CNS
HT29 colon = test system: HT29 colon
HOP-92 NSCLC = test system: HOP-92 NSCLC
RPMI-8226 leukemia = test system: RPMI-8226 leukemia
COLO 205 colon = test system: COLO 205 colon
LXFL 529 NSCLC = test system: LXFL 529 NSCLC
SR leukemia = test system: SR leukemia
LOX IMVI melanoma = test system: LOX IMVI melanoma
MALME-3M melanoma = test system: MALME-3M melanoma
RXF-631 renal = test system: RXF-631 renal
NCI-H522 lung = test system: NCI-H522 lung
UO-31 renal = test system: UO-31 renal
M14 melanoma = test system: M14 melanoma
OVCAR-8 ovarian = test system: OVCAR-8 ovarian
SNB-78 CNS = test system: SNB-78 CNS
NCI-H23 lung = test system: NCI-H23 lung
OVCAR-3 ovarian = test system: OVCAR-3 ovarian
SNB-19 CNS = test system: SNB-19 CNS
CAKI-1 renal = test system: CAKI-1 renal
KM12 colon = test system: KM12 colon
ACHN renal = test system: ACHN renal
UACC-257 melanoma = test system: UACC-257 melanoma
XF 498 CNS = test system: XF 498 CNS
KM20L2 colon = test system: KM20L2 colon

CCCCCCCCCCC(C)CCCCCCC(=O)O (configuration not stated)
TGI (SK-MEL-2 melanoma): > 100 µM | TGI (HCT-116 colon): > 100 µM | TGI (SW-620 colon): > 100 µM | TGI (NCI-H460 lung): > 100 µM | TGI (SF-539 CNS): > 100 µM | TGI (HCT-15 colon): > 100 µM | TGI (U251 CNS): > 100 µM | TGI (HCC-2998 colon): > 100 µM | TGI (HOP-62 NSCLC): > 100 µM | TGI (TK-10 renal): > 100 µM | TGI (EKVX NSCLC): > 100 µM | TGI (HOP-18 NSCLC): > 100 µM | TGI (OVCAR-5 ovarian): > 100 µM | TGI (A498 renal): > 100 µM | TGI (DMS 273 small cell lung): > 100 µM | TGI (M19-MEL melanoma): > 100 µM | TGI (SN12C renal): > 100 µM | TGI (HL-60(TB) leukemia): > 100 µM | TGI (DLD-1 colon): > 100 µM | TGI (DMS 114 small cell lung): > 100 µM | TGI (IGROV1 ovarian): > 100 µM | TGI (SK-OV-3 ovarian): > 100 µM | TGI (MOLT-4 leukemia): > 100 µM | TGI (SNB-75 CNS): > 100 µM | TGI (SK-MEL-28 melanoma): > 100 µM | TGI (A549 NSCLC): > 100 µM | TGI (SK-MEL-5 melanoma): > 100 µM | TGI (UACC-62 melanoma): > 100 µM | TGI (RXF 393 renal): > 100 µM | TGI (SF-295 CNS): > 100 µM | TGI (K-562 leukemia): > 100 µM | TGI (CCRF-CEM leukemia): > 100 µM | TGI (NCI-H226 lung): > 100 µM | TGI (786-0 renal): > 100 µM | TGI (OVCAR-4 ovarian): > 100 µM | TGI (SF-268 CNS): > 100 µM | TGI (HT29 colon): > 100 µM | TGI (HOP-92 NSCLC): > 100 µM | TGI (RPMI-8226 leukemia): > 100 µM | TGI (COLO 205 colon): > 100 µM | TGI (LXFL 529 NSCLC): > 100 µM | TGI (SR leukemia): > 100 µM | TGI (LOX IMVI melanoma): > 100 µM | TGI (MALME-3M melanoma): > 100 µM | TGI (RXF-631 renal): > 100 µM | TGI (NCI-H522 lung): > 100 µM | TGI (UO-31 renal): > 100 µM | TGI (M14 melanoma): > 100 µM | TGI (OVCAR-8 ovarian): > 100 µM | TGI (SNB-78 CNS): > 100 µM | TGI (NCI-H23 lung): > 100 µM | TGI (OVCAR-3 ovarian): > 100 µM | TGI (SNB-19 CNS): > 100 µM | TGI (CAKI-1 renal): > 100 µM | TGI (KM12 colon): > 100 µM | TGI (ACHN renal): > 100 µM | TGI (UACC-257 melanoma): > 100 µM

COC(=O)c1nn(C(=N)c2ccc(Cl)cc2)c2c1CCC2
TGI (SK-MEL-2 melanoma): > 100 µM | TGI (HCT-116 colon): > 100 µM | TGI (SW-620 colon): > 100 µM | TGI (NCI-H460 lung): > 100 µM | TGI (SF-539 CNS): > 100 µM | TGI (HCT-15 colon): > 100 µM | TGI (U251 CNS): > 100 µM | TGI (HCC-2998 colon): > 100 µM | TGI (HOP-62 NSCLC): > 100 µM | TGI (TK-10 renal): > 100 µM | TGI (OVCAR-5 ovarian): > 100 µM | TGI (XF 498 CNS): > 100 µM | TGI (A498 renal): > 100 µM | TGI (DMS 273 small cell lung): > 100 µM | TGI (M19-MEL melanoma): > 100 µM | TGI (SN12C renal): > 100 µM | TGI (HL-60(TB) leukemia): > 100 µM | TGI (DLD-1 colon): > 100 µM | TGI (DMS 114 small cell lung): > 100 µM | TGI (IGROV1 ovarian): > 100 µM | TGI (SK-OV-3 ovarian): > 100 µM | TGI (MOLT-4 leukemia): > 100 µM | TGI (SNB-75 CNS): > 100 µM | TGI (SK-MEL-28 melanoma): > 100 µM | TGI (A549 NSCLC): > 100 µM | TGI (SK-MEL-5 melanoma): > 100 µM | TGI (UACC-62 melanoma): > 100 µM | TGI (RXF 393 renal): > 100 µM | TGI (SF-295 CNS): > 100 µM | TGI (K-562 leukemia): > 100 µM | TGI (CCRF-CEM leukemia): > 100 µM | TGI (NCI-H226 lung): > 100 µM | TGI (786-0 renal): > 100 µM | TGI (OVCAR-4 ovarian): > 100 µM | TGI (SF-268 CNS): > 100 µM | TGI (HT29 colon): > 100 µM | TGI (HOP-92 NSCLC): > 100 µM | TGI (RPMI-8226 leukemia): > 100 µM | TGI (COLO 205 colon): > 100 µM | TGI (LXFL 529 NSCLC): > 100 µM | TGI (SR leukemia): 92.3 µM | TGI (LOX IMVI melanoma): > 100 µM | TGI (MALME-3M melanoma): > 100 µM | TGI (NCI-H522 lung): > 100 µM | TGI (UO-31 renal): > 100 µM | TGI (M14 melanoma): > 100 µM | TGI (OVCAR-8 ovarian): > 100 µM | TGI (SNB-78 CNS): > 100 µM | TGI (NCI-H23 lung): > 100 µM | TGI (SNB-19 CNS): > 100 µM | TGI (CAKI-1 renal): > 100 µM | TGI (KM12 colon): > 100 µM | TGI (ACHN renal): > 100 µM | TGI (UACC-257 melanoma): > 100 µM | TGI (KM20L2 colon): > 100 µM
